Measured values taken from ChEMBL document CHEMBL1131594, “Stereoisomers of cyclic urea HIV-1 protease inhibitors: synthesis and binding affinities” (J Med Chem, 1998).

Molecular target: Human immunodeficiency virus type 1 protease (Human immunodeficiency virus 1, UniProt Q72874)
Assay: Compound was tested for binding affinity against HIV-1 protease.

Compound | Ki
O=C1N(Cc2ccccc2)[C@@H](Cc2ccccc2)[C@@H](O)[C@H](O)[C@H](Cc2ccccc2)N1Cc1ccccc1 | 3810 nM
O=C1N(Cc2ccccc2)[C@H](Cc2ccccc2)[C@@H](O)[C@H](O)[C@H](Cc2ccccc2)N1Cc1ccccc1 | 6700 nM
O=C1N(Cc2ccccc2)[C@@H](Cc2ccccc2)[C@H](O)[C@H](O)[C@H](Cc2ccccc2)N1Cc1ccccc1 | 1710 nM
O=C1N(Cc2ccccc2)[C@H](Cc2ccccc2)[C@@H](O)[C@H](O)[C@@H](Cc2ccccc2)N1Cc1ccccc1 | 1350 nM
O=C1N(Cc2ccccc2)[C@H](Cc2ccccc2)[C@H](O)[C@@H](O)[C@H](Cc2ccccc2)N1Cc1ccccc1 | 64 nM
O=C1N(Cc2ccccc2)[C@@H](Cc2ccccc2)[C@H](O)[C@@H](O)[C@H](Cc2ccccc2)N1Cc1ccccc1 | 560 nM
O=C1N(Cc2ccccc2)[C@H](Cc2ccccc2)[C@H](O)[C@@H](O)[C@@H](Cc2ccccc2)N1Cc1ccccc1 | 3.6 nM
O=C1N(Cc2ccccc2)[C@H](Cc2ccccc2)[C@H](O)[C@H](O)[C@H](Cc2ccccc2)N1Cc1ccccc1 | 250 nM
